Data reported in ChEMBL document CHEMBL4834420, “Projected Dose Optimization of Amino- and Hydroxypyrrolidine Purine PI3Kδ Immunomodulators” (J Med Chem, 2021).

Experiments:
[1] = molecular target: T1, Phosphatidylinositol 4,5-bisphosphate 3-kinase catalytic subunit delta isoform (Homo sapiens, UniProt O00329); assay: Inhibition of PI3Kdelta in human Ramos cells assessed as reduction in anti-IgM-antibody-induced phosphorylation of AKT at Ser473 residue preincubated for 20 mins followed by anti-IgM antibody stimulation and measured after 30 mins by alphascreen assay; format: cell-based
T1 sequence (O00329 whole entry): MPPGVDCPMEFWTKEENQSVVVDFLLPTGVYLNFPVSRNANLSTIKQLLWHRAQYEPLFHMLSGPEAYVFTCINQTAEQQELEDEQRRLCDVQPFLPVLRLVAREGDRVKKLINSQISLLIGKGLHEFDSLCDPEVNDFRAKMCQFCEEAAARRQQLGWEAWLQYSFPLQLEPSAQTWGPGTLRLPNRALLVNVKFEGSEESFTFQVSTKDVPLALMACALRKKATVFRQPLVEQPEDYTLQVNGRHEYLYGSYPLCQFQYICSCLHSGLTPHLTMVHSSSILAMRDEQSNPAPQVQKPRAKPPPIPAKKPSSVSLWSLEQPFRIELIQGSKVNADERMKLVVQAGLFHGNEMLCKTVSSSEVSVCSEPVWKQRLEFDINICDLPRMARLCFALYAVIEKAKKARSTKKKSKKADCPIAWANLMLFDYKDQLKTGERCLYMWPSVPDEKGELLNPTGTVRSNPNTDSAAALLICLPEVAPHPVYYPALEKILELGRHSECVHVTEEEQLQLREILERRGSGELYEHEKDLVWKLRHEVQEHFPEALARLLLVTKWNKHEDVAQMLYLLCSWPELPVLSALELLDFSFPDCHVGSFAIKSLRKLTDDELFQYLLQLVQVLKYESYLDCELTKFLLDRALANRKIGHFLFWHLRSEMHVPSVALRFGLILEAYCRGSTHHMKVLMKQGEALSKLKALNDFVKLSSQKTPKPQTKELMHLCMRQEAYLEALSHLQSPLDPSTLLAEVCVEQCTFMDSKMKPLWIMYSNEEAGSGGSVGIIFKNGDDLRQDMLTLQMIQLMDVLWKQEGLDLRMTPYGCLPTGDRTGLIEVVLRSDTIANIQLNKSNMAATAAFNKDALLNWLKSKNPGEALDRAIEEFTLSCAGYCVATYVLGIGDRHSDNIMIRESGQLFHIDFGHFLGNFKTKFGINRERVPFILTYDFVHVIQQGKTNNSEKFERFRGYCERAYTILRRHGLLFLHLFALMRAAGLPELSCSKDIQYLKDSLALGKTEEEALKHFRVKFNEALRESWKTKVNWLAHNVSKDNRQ

[2] = molecular target: PI3-kinase p110-delta/p85-alpha (Homo sapiens, UniProt O00329); assay: Inhibition of N-terminal His6-tagged recombinant full length human p110delta/untagged recombinant full length human p85alpha expressed in baculovirus infected Sf21 insect cells using PIP2 as substrate preincubated for 15 mins followed by substrate addition and measured after 1 hr by HTRF assay
Chain of PI3-kinase p110-delta/p85-alpha (P27986 whole entry, one chain of several): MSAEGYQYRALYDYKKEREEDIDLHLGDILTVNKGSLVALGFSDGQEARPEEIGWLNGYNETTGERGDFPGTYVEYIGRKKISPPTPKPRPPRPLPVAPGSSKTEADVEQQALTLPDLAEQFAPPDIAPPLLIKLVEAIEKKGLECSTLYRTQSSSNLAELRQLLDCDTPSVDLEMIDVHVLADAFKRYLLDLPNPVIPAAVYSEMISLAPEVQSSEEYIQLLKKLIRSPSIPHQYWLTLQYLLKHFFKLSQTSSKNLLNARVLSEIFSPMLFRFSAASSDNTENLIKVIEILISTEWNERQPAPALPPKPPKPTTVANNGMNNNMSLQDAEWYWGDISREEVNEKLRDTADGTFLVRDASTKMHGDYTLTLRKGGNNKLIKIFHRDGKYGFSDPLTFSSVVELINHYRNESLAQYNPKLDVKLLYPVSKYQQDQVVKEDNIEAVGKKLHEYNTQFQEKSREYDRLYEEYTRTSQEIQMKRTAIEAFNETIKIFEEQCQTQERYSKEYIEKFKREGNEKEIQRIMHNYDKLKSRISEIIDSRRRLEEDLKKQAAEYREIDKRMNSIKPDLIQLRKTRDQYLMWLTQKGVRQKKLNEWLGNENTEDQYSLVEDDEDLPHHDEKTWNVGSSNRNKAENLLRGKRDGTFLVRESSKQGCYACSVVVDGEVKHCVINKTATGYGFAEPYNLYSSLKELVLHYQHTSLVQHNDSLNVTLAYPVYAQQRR

[3] = Inhibition of adenosine transporter in human HeLa cells assessed as reduction in [3H]adenosine uptake preincubated for 30 mins followed by [3H]adenosine addition and measured after 60 mins; format: cell-based
[4] = Volume of distribution in Beagle dog; format: ADME, Canis lupus familiaris; conditions: in vivo
[5] = Plasma clearance in Beagle dog at 0.25 mg/kg, iv or 0.5 mg/kg, po; format: ADME, organism-based, Canis lupus familiaris
[6] = Lipophilicity, log D of the compound by HPLC analysis; format: physicochemical
[7] = Oral bioavailability in Beagle dog; format: ADME, organism-based, Canis lupus familiaris; conditions: in vivo
[8] = Unbound volume of distribution in Wistar Han rat; format: ADME; conditions: in vivo
[9] = Unbound volume of distribution in Beagle dog; format: ADME, Canis lupus familiaris; conditions: in vivo
[10] = Intrinsic clearance in Wistar Han rat at 0.5 mg/kg, iv or 1 mg/kg, po; format: ADME, organism-based; conditions: in vivo
[11] = Half-life in Beagle dog; format: ADME, Canis lupus familiaris; conditions: in vivo
[12] = Plasma clearance in Wistar Han rat at 0.5 mg/kg, iv or 1 mg/kg, po; format: ADME, organism-based
[13] = Oral bioavailability in Wistar Han rat; format: ADME, organism-based; conditions: in vivo
[14] = Half-life in Wistar Han rat; format: ADME; conditions: in vivo
[15] = Volume of distribution in Wistar Han rat; format: ADME; conditions: in vivo
[16] = molecular target: T1, Phosphatidylinositol 4,5-bisphosphate 3-kinase catalytic subunit delta isoform; assay: Inhibition of PI3Kdelta in human whole blood assessed as reduction in anti-CD79b antibody-induced CD69 expression preincubated for 60 mins followed by anti-CD79b antibody stimulation and measured after 3 hrs by FACS analysis; format: tissue-based
[17] = Intrinsic clearance in Beagle dog at 0.25 mg/kg, iv or 0.5 mg/kg, po; format: ADME, organism-based, Canis lupus familiaris; conditions: in vivo
[18] = Apparent permeability in pig LLC-PK1 cells; format: ADME, cell-based, Sus scrofa

SMILES	IC50 [1] [nM]	IC50 [2] [nM]	IC50 [3] [nM]	Vd [4] [L/kg]	clearance [5] [mL/min/kg]	logD [6]	bioavailability [7] [%]	Vdu [8] [L/kg]	Vdu [9] [L/kg]	CL [10] [mL/min/kg]	half-life [11] [h]	clearance [12] [mL/min/kg]	bioavailability [13] [%]	half-life [14] [h]	Vd [15] [L/kg]	IC50 [16] [nM]	CL [17] [mL/min/kg]	Papp [18] [×10⁻⁶ cm/s]
CCCn1c(-c2cnn(CC)c2C)nc2c(N[C@H]3CCN(C(=O)CC)C3)ncnc21	198	21	3700															
CCn1c(-c2cnc(C)nc2)nc2c(O[C@H]3CCN(C(=O)c4cocn4)C3)ncnc21	94	6.4	> 10000	1.7	9.3	0.7	100	3.2	1.9	25	1.8	3.7	50	1.7	0.5	600	16	
CCn1c(-c2ccc(C(F)(F)F)nc2)nc2c(O[C@H]3CCN(C(=O)[C@H]4C[C@@H](OC)C4)C3)ncnc21	67	1.6	4100	1.1	6.2	2.2	100	13	2.5	130	2.6	3.6	39	3.3	0.4	73	18	35
CCn1c(-c2ccc(C(F)(F)F)nc2)nc2c(O[C@H]3CCN(C(=O)N4CC(OC)C4)C3)ncnc21	43	1.3	2200	0.7	12	2.1	100	4.2	1.7	29	0.7	1.7	52	2	0.2	68	46	33
CCn1c(-c2ccc(C(F)(F)F)nc2)nc2c(O[C@H]3CCN(C(=O)C4CCOC4)C3)ncnc21 (stereo not given in full)	110	4.1	3200	0.9	3.4	1.9	100	3.6	1.6	19	3.6	1.2	58	2.3	0.2	100	6	27
CCC(=O)N1CC[C@H](Nc2ncnc3c2nc(-c2cnn(CC)c2C)n3C2CC2)C1	720	39																
CCC(=O)N1CC[C@H](Nc2ncnc3c2nc(-c2cnc(C)nc2)n3C)C1	71	4.2	2000															
CCn1c(-c2ccc(C(F)(F)F)nc2)nc2c(O[C@H]3CCN(C(=O)c4cocn4)C3)ncnc21	300	7.5	4400	1.2	5.6	2	100	2.6	3.4	13	2.5	1.3	100	6	0.3	380	19	29
CCn1c(-c2cnc(C)nc2)nc2c(N[C@H]3CCN(C(=O)C4CCC4)C3)ncnc21	4	0.4	1200	1.3	11	1.2	84	9.2	2.3	320	1.3	13	74	0.6	0.5	14	30	32
CCC(=O)N1CC[C@H](Nc2ncnc3c2nc(-c2ccc(C)nc2)n3C)C1	160	5	3800															
CCC(=O)N1CC[C@H](Nc2ncnc3c2nc(-c2ccn(CC)c2C)n3C)C1	125	26																
CCC(=O)N1CC[C@H](Nc2ncnc3c2nc(-c2cnn(CC)c2C)n3C)C1			7300															
CCC(=O)N1CC[C@H](Nc2ncnc3c2nc(-c2ccc(C(F)(F)F)nc2)n3C)C1	66	9.9	700															
CCC(=O)N1CC[C@H](Nc2ncnc3c2nc(-c2cnc(OC)c(F)c2)n3C)C1	20	2.6	1300															
CCC(=O)N1CC[C@H](Nc2ncnc3[nH]c(-c4cnn(CC)c4C)nc23)C1	875	7.6	5400															
CCC(=O)N1CC[C@H](Nc2ncnc3c2nc(-c2cnn(CC)c2C)n3CC2CC2)C1	1350																	
CCC(=O)N1CC[C@H](Nc2ncnc3c2nc(-c2cnc(C(C)(C)C)s2)n3C)C1	4	0.7	1600															
CCC(=O)N1CC[C@H](Nc2ncnc3c2nc(-c2ccc(OC)nc2)n3C)C1	67		1900															
CCC(=O)N1CC[C@H](Nc2ncnc3c2nc(-c2cnn(CC)c2C)n3CC(F)(F)F)C1	330	5.9	9300															
CCC(=O)N1CC[C@H](Nc2ncnc3c2nc(-c2cnn(CC)c2C)n3CC)C1	2	0.2	2300															
CCn1c(-c2cnc(C)nc2)nc2c(O[C@H]3CCN(C(=O)C4CC4)C3)ncnc21	80	5.9	5300	0.6	4.9	1	100	2.8	0.7	44	1.3	9.7	64	1.8	0.7	270	7	28
CCn1c(-c2cnc(C)nc2)nc2c(N[C@H]3CCN(C(=O)[C@H]4C[C@@H](OC)C4)C3)ncnc21	34	0.8	6100	1.5	7.1	0.9	85	4.1	2	81	4.3	6.9	52	2.3	1.5	26	13	10
CCC(=O)N1CC[C@H](Nc2ncnc3c2nc(-c2cnc(OC)c(C)c2)n3C)C1	6		300															
CCn1c(-c2cnc(C)nc2)nc2c(N[C@H]3CCN(C(=O)C4CCOCC4)C3)ncnc21	33	2.1	8900			0.7		4.3		220		24	18	1.4	0.7			
CCCn1c(-c2cnc(C)nc2)nc2c(N[C@H]3CCN(C(=O)CC)C3)ncnc21	455	135																
CCC(=O)N1CC[C@H](Nc2ncnc3c2nc(-c2cnn(CC)c2C)n3CC(F)F)C1	14	1.3	3100															
